Patent publication US8450270B2 (Indiana University Research and Technology Corporation, priority 2008, dated 2013)
Square brackets hold non-standard residues; d marks the D form. Ends that are not written are not given here. Peptide text beside a SMILES is read from it. Dab = NCC[C@H](N)C(=O)O; Aib = CC(C)(N)C(=O)O

Tests used:
[1] = Glucagon solubility assay; assay type: physicochemical
Glucagon Receptor = Glucagon Receptor (Homo sapiens, UniProt P47871); assay: Functional assay-cAMP synthesis (luciferase reporter, HEK293), glucagon receptor; conditions: for % activity*: glucagon receptor
Sequence of Glucagon Receptor (P47871 26-477): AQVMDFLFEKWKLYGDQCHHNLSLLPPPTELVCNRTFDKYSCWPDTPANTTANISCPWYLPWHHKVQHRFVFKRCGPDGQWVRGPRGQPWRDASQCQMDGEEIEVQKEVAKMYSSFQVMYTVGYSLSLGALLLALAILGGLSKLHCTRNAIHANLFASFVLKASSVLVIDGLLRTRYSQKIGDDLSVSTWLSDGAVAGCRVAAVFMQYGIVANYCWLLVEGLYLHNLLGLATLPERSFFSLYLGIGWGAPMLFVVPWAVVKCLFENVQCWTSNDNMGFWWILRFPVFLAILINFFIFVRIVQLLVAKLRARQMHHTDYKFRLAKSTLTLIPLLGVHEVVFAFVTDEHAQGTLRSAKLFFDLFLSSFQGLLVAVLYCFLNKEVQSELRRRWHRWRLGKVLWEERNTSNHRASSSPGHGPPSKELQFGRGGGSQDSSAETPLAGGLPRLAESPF
From the text: The luminescent light output indicates activation of the luciferase reporter gene, which in turn is a measure of the activation of the receptor.

[2] = Table 8, wildtype glucagon = 100
[3] = EC50 at Glucagon Receptor (nM), Table 7

Glucagon, Cys17PEG5K: Glucagon Cys17(1-29) reacted with methoxy poly(ethyleneglycol) maleimide avg. M.W.5000
Percent Soluble ([1]; pH 7): 94%

CC(=O)NCC[C@H](NC(=O)[C@H](CO)NC(=O)[C@@H](N)Cc1c[nH]cn1)C(=O)NCC(=O)N[C@H](C(=O)N[C@@H](Cc1ccccc1)C(=O)N[C@H](C(=O)N[C@@H](CO)C(=O)N[C@@H](CC(=O)O)C(=O)N[C@@H](Cc1ccc(O)cc1)C(=O)N[C@@H](CO)C(=O)N[C@@H](CCCCN)C(=O)N[C@@H](Cc1ccc(O)cc1)C(=O)N[C@@H](CC(C)C)C(=O)N[C@@H](CC(=O)O)C(=O)NC(C)(C)C(=O)N[C@@H](CCCNC(=N)N)C(=O)N[C@@H](CCCNC(=N)N)C(=O)N[C@@H](C)C(=O)N[C@@H](C)C(=O)N[C@@H](CC(=O)O)C(=O)N[C@@H](Cc1ccccc1)C(=O)N[C@H](C(=O)N[C@@H](C)C(=O)N[C@@H](Cc1c[nH]c2ccccc12)C(=O)N[C@@H](CC(C)C)C(=O)N[C@@H](CC(C)C)C(=O)N[C@@H](CC(=O)O)C(=O)N[C@H](C(=O)NCC(=O)N1CCC[C@H]1C(=O)N[C@@H](CO)C(=O)N[C@@H](CO)C(=O)NCC(=O)N[C@@H](C)C(=O)N1CCC[C@H]1C(=O)N1CCC[C@H]1C(=O)N1CCC[C@H]1C(=O)N[C@@H](CO)C(N)=O)[C@@H](C)O)C(C)C)[C@@H](C)O)[C@@H](C)O [SEQ ID NO: 72] (H-HS[Dab](Ac)GTFTSDYSKYLD[Aib]RRAADFVAWLLDTGPSSGAPPPS-NH2; N-terminus assumed)
% activity* (Glucagon Receptor; [2]): 113%

CCCC[C@H](NC(=O)[C@H](CC(C)C)NC(=O)[C@H](Cc1c[nH]c2ccccc12)NC(=O)[C@H](C)NC(=O)[C@@H](NC(=O)[C@H](Cc1ccccc1)NC(=O)[C@H](CCC(=O)O)NC(=O)[C@H](C)NC(=O)[C@H](C)NC(=O)[C@H](CCCNC(=N)N)NC(=O)[C@H](CCCNC(=N)N)NC(=O)[C@@H](NC(=O)[C@H](CC(=O)O)NC(=O)[C@H](CC(C)C)NC(=O)[C@H](Cc1ccc(O)cc1)NC(=O)[C@H](CCCCN)NC(=O)[C@H](CO)NC(=O)[C@H](Cc1ccc(O)cc1)NC(=O)[C@H](CC(=O)O)NC(=O)[C@H](CO)NC(=O)[C@@H](NC(=O)[C@H](Cc1ccccc1)NC(=O)[C@@H](NC(=O)CNC(=O)[C@H](CSCNC(C)=O)NC(=O)[C@H](CO)NC(=O)[C@@H](N)Cc1c[nH]cn1)[C@@H](C)O)[C@@H](C)O)[C@@H](C)O)C(C)C)C(=O)N[C@@H](CC(=O)O)C(=O)N[C@@H](CCC(=O)O)C(=O)O [SEQ ID NO: 62]
EC50 (Glucagon Receptor; [3]): 0.18 nM | % activity* (Glucagon Receptor; Table 7): 33%

CSCC[C@H](NC(=O)[C@H](CC(C)C)NC(=O)[C@H](Cc1c[nH]c2ccccc12)NC(=O)[C@H](C)NC(=O)[C@@H](NC(=O)[C@H](Cc1ccccc1)NC(=O)[C@H](CC(=O)O)NC(=O)[C@H](C)NC(=O)[C@H](C)NC(=O)[C@H](CCCNC(=N)N)NC(=O)[C@H](CCCNC(=N)N)NC(=O)C(C)(C)NC(=O)[C@H](CC(=O)O)NC(=O)[C@H](CC(C)C)NC(=O)[C@H](Cc1ccc(O)cc1)NC(=O)[C@H](CCCCN)NC(=O)[C@H](CO)NC(=O)[C@H](Cc1ccc(O)cc1)NC(=O)[C@H](CC(=O)O)NC(=O)[C@H](CO)NC(=O)[C@@H](NC(=O)[C@H](Cc1ccccc1)NC(=O)[C@@H](NC(=O)CNC(=O)[C@H](CCNC(C)=O)NC(=O)[C@H](CO)NC(=O)[C@@H](N)Cc1c[nH]cn1)[C@@H](C)O)[C@@H](C)O)C(C)C)C(=O)N[C@@H](CC(=O)O)C(=O)N[C@@H](CCC(=O)O)C(=O)O [SEQ ID NO: 69]
% activity* (Glucagon Receptor; Table 7): 86%

CCCC[C@H](NC(=O)[C@H](CC(C)C)NC(=O)[C@H](Cc1c[nH]c2ccccc12)NC(=O)[C@H](C)NC(=O)[C@@H](NC(=O)[C@H](Cc1ccccc1)NC(=O)[C@H](CCC(=O)O)NC(=O)[C@H](C)NC(=O)[C@H](C)NC(=O)[C@H](CCCNC(=N)N)NC(=O)[C@H](CCCNC(=N)N)NC(=O)[C@@H](NC(=O)[C@H](CC(=O)O)NC(=O)[C@H](CC(C)C)NC(=O)[C@H](Cc1ccc(O)cc1)NC(=O)[C@H](CCCCN)NC(=O)[C@H](CO)NC(=O)[C@H](Cc1ccc(O)cc1)NC(=O)[C@H](CC(=O)O)NC(=O)[C@H](CO)NC(=O)[C@@H](NC(=O)[C@H](Cc1ccccc1)NC(=O)[C@@H](NC(=O)CNC(=O)[C@H](CC[S+](C)[O-])NC(=O)[C@H](CO)NC(=O)[C@@H](N)Cc1c[nH]cn1)[C@@H](C)O)[C@@H](C)O)[C@@H](C)O)C(C)C)C(=O)N[C@@H](CC(=O)O)C(=O)N[C@@H](CCC(=O)O)C(=O)O (stereo partly shown) [SEQ ID NO: 66]
% activity* (Glucagon Receptor; Table 7): 7%

CSCC[C@H](NC(=O)[C@H](CC(C)C)NC(=O)[C@H](Cc1c[nH]c2ccccc12)NC(=O)[C@H](C)NC(=O)[C@@H](NC(=O)[C@H](Cc1ccccc1)NC(=O)[C@H](CC(=O)O)NC(=O)[C@H](C)NC(=O)[C@H](C)NC(=O)[C@H](CCCNC(=N)N)NC(=O)[C@H](CCCNC(=N)N)NC(=O)C(C)(C)NC(=O)[C@H](CC(=O)O)NC(=O)[C@H](CC(C)C)NC(=O)[C@H](Cc1ccc(O)cc1)NC(=O)[C@H](CCCCN)NC(=O)[C@H](CO)NC(=O)[C@H](Cc1ccc(O)cc1)NC(=O)[C@H](CC(=O)O)NC(=O)[C@H](CO)NC(=O)[C@@H](NC(=O)[C@H](Cc1ccccc1)NC(=O)[C@@H](NC(=O)CNC(=O)[C@H](CCC(N)=O)NC(=O)[C@H](CO)NC(=O)[C@@H](N)Cc1c[nH]cn1)[C@@H](C)O)[C@@H](C)O)C(C)C)C(=O)N[C@@H](CC(=O)O)C(=O)N[C@@H](CCC(=O)O)C(=O)O [SEQ ID NO: 68]
% activity* (Glucagon Receptor; Table 7): 15%

CC(=O)NCC[C@H](NC(=O)[C@H](CO)NC(=O)[C@@H](N)Cc1c[nH]cn1)C(=O)NCC(=O)N[C@H](C(=O)N[C@@H](Cc1ccccc1)C(=O)N[C@H](C(=O)N[C@@H](CO)C(=O)N[C@@H](CC(=O)O)C(=O)N[C@@H](Cc1ccc(O)cc1)C(=O)N[C@@H](CO)C(=O)N[C@@H](CCCCN)C(=O)N[C@@H](Cc1ccc(O)cc1)C(=O)N[C@@H](CC(C)C)C(=O)N[C@@H](CC(=O)O)C(=O)NC(C)(C)C(=O)N[C@@H](CCCNC(=N)N)C(=O)N[C@@H](CCCNC(=N)N)C(=O)N[C@@H](C)C(=O)N[C@@H](CO)C(=O)N[C@@H](CC(=O)O)C(=O)N[C@@H](Cc1ccccc1)C(=O)N[C@H](C(=O)N[C@@H](CO)C(=O)N[C@@H](Cc1c[nH]c2ccccc12)C(=O)N[C@@H](CC(C)C)C(=O)N[C@@H](CC(C)C)C(=O)N[C@@H](CC(=O)O)C(=O)N[C@@H](CCC(=O)O)C(=O)O)C(C)C)[C@@H](C)O)[C@@H](C)O [SEQ ID NO: 73] (H-HS[Dab](Ac)GTFTSDYSKYLD[Aib]RRASDFVSWLLDE-OH; N-terminus and C-terminus assumed)
% activity* (Glucagon Receptor; [2]): 54%

CCCCCCCCCCCCCCCC(=O)NCCCCCC(=O)NCCCC[C@H](NC(=O)[C@H](CC(=O)O)NC(=O)[C@H](CO)NC(=O)[C@@H](NC(=O)[C@H](Cc1ccccc1)NC(=O)[C@@H](NC(=O)CNC(=O)[C@H](CCC(N)=O)NC(=O)C(C)(C)NC(=O)[C@@H](N)Cc1c[nH]cn1)[C@@H](C)O)[C@@H](C)O)C(=O)N[C@@H](CO)C(=O)N[C@@H](CCCCN)C(=O)N[C@@H](Cc1ccc(O)cc1)C(=O)N[C@@H](CC(C)C)C(=O)N[C@@H](CC(=O)O)C(=O)NC(C)(C)C(=O)N[C@@H](CCCNC(=N)N)C(=O)N[C@@H](CCCNC(=N)N)C(=O)N[C@@H](C)C(=O)N[C@@H](CCC(N)=O)C(=O)N[C@@H](CC(=O)O)C(=O)N[C@@H](Cc1ccccc1)C(=O)N[C@H](C(=O)N[C@@H](CCC(N)=O)C(=O)N[C@@H](Cc1c[nH]c2ccccc12)C(=O)N[C@@H](CC(C)C)C(=O)N[C@@H](CCSC)C(=O)N[C@@H](CC(N)=O)C(=O)N[C@H](C(N)=O)[C@@H](C)O)C(C)C [Peptide 85, HXQGTFTSDKSKYLDXRRAQDFVQWLMNT-NH2]
EC50 (Glucagon Receptor; EC50 at Glucagon Receptor (nM), Table 10): 0.01 nM

CSCC[C@H](NC(=O)[C@H](CC(C)C)NC(=O)[C@H](Cc1c[nH]c2ccccc12)NC(=O)[C@H](CCC(N)=O)NC(=O)[C@@H](NC(=O)[C@H](Cc1ccccc1)NC(=O)[C@H](CC(=O)O)NC(=O)[C@H](CCC(N)=O)NC(=O)[C@H](C)NC(=O)[C@H](CCCNC(=N)N)NC(=O)[C@H](CCCNC(=N)N)NC(=O)C(C)(C)NC(=O)[C@H](CC(=O)O)NC(=O)[C@H](CC(C)C)NC(=O)[C@H](Cc1ccc(O)cc1)NC(=O)[C@H](CCCCN)NC(=O)[C@H](CO)NC(=O)[C@H](Cc1ccc(O)cc1)NC(=O)[C@H](CC(=O)O)NC(=O)[C@H](CO)NC(=O)[C@@H](NC(=O)[C@H](Cc1ccccc1)NC(=O)[C@@H](NC(=O)CNC(=O)[C@H](CCC(N)=O)NC(=O)[C@H](CO)NC(=O)[C@@H](N)Cc1c[nH]cn1)[C@@H](C)O)[C@@H](C)O)C(C)C)C(=O)N[C@@H](CC(=O)O)C(=O)N[C@@H](CCC(=O)O)C(=O)O [AIB16/D28/E29 Glucagon] (H-HSQGTFTSDYSKYLD[Aib]RRAQDFVQWLMDE-OH; N-terminus and C-terminus assumed)
EC50 (Glucagon Receptor; EC50 at the glucagon receptor, Example 20): 0.08 nM

CCCC[C@H](NC(=O)[C@H](CC(C)C)NC(=O)[C@H](Cc1c[nH]c2ccccc12)NC(=O)[C@H](C)NC(=O)[C@@H](NC(=O)[C@H](Cc1ccccc1)NC(=O)[C@H](CCC(=O)O)NC(=O)[C@H](C)NC(=O)[C@H](C)NC(=O)[C@H](CCCNC(=N)N)NC(=O)[C@H](CCCNC(=N)N)NC(=O)[C@@H](NC(=O)[C@H](CC(=O)O)NC(=O)[C@H](CC(C)C)NC(=O)[C@H](Cc1ccc(O)cc1)NC(=O)[C@H](CCCCN)NC(=O)[C@H](CO)NC(=O)[C@H](Cc1ccc(O)cc1)NC(=O)[C@H](CC(=O)O)NC(=O)[C@H](CO)NC(=O)[C@@H](NC(=O)[C@H](Cc1ccccc1)NC(=O)[C@@H](NC(=O)CNC(=O)[C@H](CNC(N)=O)NC(=O)[C@H](CO)NC(=O)[C@@H](N)Cc1c[nH]cn1)[C@@H](C)O)[C@@H](C)O)[C@@H](C)O)C(C)C)C(=O)N[C@@H](CC(=O)O)C(=O)N[C@@H](CCC(=O)O)C(=O)O [SEQ ID NO: 64]
EC50 (Glucagon Receptor; [3]): 0.48 nM | % activity* (Glucagon Receptor; Table 7): 13%

HSQGTFTSDYSKYLESRRAQDFVQWLMDT [D28, E15]
solubility relative to native glucagon ([1]; pH values of 5.5 and 7.0, FIGS. 3 & 4): superior solubility
